Patent US7691889B2, “Antimycobacterial compounds” (Lupin Limited, priority 2002, dated 2010)
≈ marks a conversion by molar mass, not a printed value.

system: M. tuberculosis clinical isolates, resistant; assay: microbe, parasite or virus in culture; type: cell-based, Mycobacterium tuberculosis; details: Mycobacterium tuberculosis, read-out: MIC against Clinical isolates Resistant

Row | Compound | MIC
1 | Cc1ccc(C(=O)CCC(=O)NC[C@H]2CN(c3ccc(-c4nc[nH]n4)c(F)c3)C(=O)O2)c(C)c1 [Compound 43, (S)-N-[[3-(3-fluoro-4-(1,2,4-triazolyl)phenyl)-2-oxo-5-oxazolidinyl]methyl]-4-(2,4-dimethylphenyl)-4-oxobutanamide] | 1 to 2 µg/mL (≈ 2.15 to 4.3 µM)
2 | CCCc1ccc(C(=O)CCC(=O)NC[C@H]2CN(c3ccc(-c4nc[nH]n4)c(F)c3)C(=O)O2)c(C)c1 [Compound 46, (S)-N-[[3-(3-fluoro-4-(1,2,4-triazolyl)phenyl)-2-oxo-5-oxazolidinyl]methyl]-4-(2′-methyl-4-propylphenyl)-4-oxobutanamide] | 2 to 8 µg/mL (≈ 4.05 to 16.2 µM)
3 | O=C(CCC(=O)c1cccs1)NC[C@H]1CN(c2ccc(-c3nc[nH]n3)c(F)c2)C(=O)O1 [Compound 47, (S)-N-[[3-(3-fluoro-4-(1,2,4-triazolyl)phenyl)-2-oxo-5-oxazolidinyl]methyl]-4-oxo-4-(2-thienyl)butanamide] | 2 to 4 µg/mL (≈ 4.51 to 9.02 µM)
4 | O=C(CCC(=O)c1ccc2ccccc2c1)NC[C@H]1CN(c2ccc(-c3nc[nH]n3)c(F)c2)C(=O)O1 [Compound 48, (S)-N-[[3-(3-fluoro-4-(1,2,4-triazolyl)phenyl)-2-oxo-5-oxazolidinyl]methyl]-4-(2-naphthyl)-4-oxobutanamide] | 2 to 8 µg/mL (≈ 4.1 to 16.4 µM)
5 | O=C(CCC(=O)c1ccc(Cl)cc1)NC[C@H]1CN(c2ccc(-c3nc[nH]n3)c(F)c2)C(=O)O1 [Compound 49, (S)-N-[[3-(3-fluoro-4-(1,2,4-triazolyl)phenyl)-2-oxo-5-oxazolidinyl]methyl]-4-(4-chlorophenyl)-4-oxobutanamide] | 4 to 16 µg/mL (≈ 8.48 to 33.9 µM)
6 | CC(=O)Nc1ccc(C(=O)CCC(=O)NC[C@H]2CN(c3ccc(-c4nc[nH]n4)c(F)c3)C(=O)O2)cc1 [Compound 50, (S)-N-[[3-(3-fluoro-4-(1,2,4-triazolyl)phenyl)-2-oxo-5-oxazolidinyl]methyl]-4-(4-acetamidophenyl)-4-oxobutanamide] | 2 to 4 µg/mL (≈ 4.04 to 8.09 µM)
7 | CC(=O)NC[C@H]1CN(c2ccc(N3CCOCC3)c(F)c2)C(=O)O1 [Linezolid, (S)-N-[[3-[3-fluoro-4-(4-morpholinyl)phenyl]-2-oxo-5-oxazolidin-yl]methyl]-acetamide, reference compound] | 1 to 2 µg/mL (≈ 2.96 to 5.93 µM)

same assay, conditions: Table I; agar dilution

Row | Compound | MIC against Clinical isolates Resistant
8 | O=C(CCC(=O)c1ccccc1)NC[C@H]1CN(c2ccc(N3CCOCC3)c(F)c2)C(=O)O1 [Compound 1, (S)-N-[[3-(3-fluoro-4-morpholinylphenyl)-2-oxo-5-oxazolidinyl]methyl]-4-oxo-4-phenylbutanamide] | >16 µg/mL
9 | Cc1ccc(C(=O)CCC(=O)NC[C@H]2CN(c3ccc(N4CCOCC4)c(F)c3)C(=O)O2)cc1 [Compound 2, (S)-N-[[3-(3-fluoro-4-morpholinylphenyl)-2-oxo-5-oxazolidinyl]methyl]-4-(4-methylphenyl)-4-oxobutanamide] | 8 µg/mL (≈ 17 µM)
10 | O=C(CCC(=O)c1ccccc1)NC[C@H]1CN(c2ccc(N3CCSCC3)c(F)c2)C(=O)O1 [Compound 8, (S)-N-[[3-(3-fluoro-4-thiomorpholinylphenyl)-2-oxo-5-oxazolidinyl]methyl]-4-oxo-4-phenylbutanamide] | 2 to 4 µg/mL
11 | COc1ccc(C(=O)CCC(=O)NC[C@H]2CN(c3ccc(N4CCOCC4)c(F)c3)C(=O)O2)cc1 [Compound 13, (S)-N-[[3-(3-fluoro-4-morpholinylphenyl)-2-oxo-5-oxazolidinyl]methyl]-4-(4-methoxyphenyl)-4-oxobutanamide] | 2 to 4 µg/mL
12 | Cc1ccc(C(=S)CCC(=O)NC[C@H]2CN(c3ccc(N4CCOCC4)c(F)c3)C(=O)O2)cc1 [Compound 15, (S)-N-[[3-(3-fluoro-4-morpholinylphenyl)-2-oxo-5-oxazolidinyl]methyl]-4-(4-methylphenyl)-4-thiooxobutanamide] | >16 µg/mL
13 | O=C(CCC(=O)c1ccc2ccccc2c1)NC[C@H]1CN(c2ccc(N3CCOCC3)c(F)c2)C(=O)O1 [Compound 16, (S)-N-[[3-(3-fluoro-4-morpholinylphenyl)-2-oxo-5-oxazolidinyl]methyl]-4-(4-2-naphthyl)-4-oxobutanamide] | 0.5(>16) μg/ml
14 | CC(C)Cc1ccc(C(=O)CCC(=O)NC[C@H]2CN(c3ccc(N4CCOCC4)c(F)c3)C(=O)O2)cc1 [Compound 17] | 0.5 to 1.0 µg/mL
15 | O=C(CCC(=O)c1cccs1)NC[C@H]1CN(c2ccc(N3CCOCC3)c(F)c2)C(=O)O1 [Compound 19, (S)-N-[[3-(3-fluoro-4-morpholinylphenyl)-2-oxo-5-oxazolidinyl]methyl]-4-oxo-4-(2-thienyl)butanamide] | 2 µg/mL (≈ 4.33 µM)
16 | CSc1ccc(C(=O)CCC(=O)NC[C@H]2CN(c3ccc(N4CCOCC4)c(F)c3)C(=O)O2)cc1 [Compound 21, (S)-N-[[3-(3-fluoro-4-morpholinylphenyl)-2-oxo-5-oxazolidinyl]methyl]-4-oxo-4-(4-thiomethyl)phenylbutanamide] | 0.5(>16) μg/ml
17 | Cc1ccc(C(=O)CCC(=O)NC[C@H]2CN(c3ccc(-n4nnc5ccccc54)c(F)c3)C(=O)O2)c(C)c1 [Compound 27, (S)-N-[[3-(3-fluoro-4-benzotriazolylphenyl)-2-oxo-5-oxazolidinyl]methyl]-4-(2,4-dimethylphenyl)-4-oxobutanamide] | >16 µg/mL
18 | O=C(CCC(=O)c1cccs1)NC[C@H]1CN(c2ccc(N3CCCC3)c(F)c2)C(=O)O1 [Compound 28, (S)-N-[[3-(3-fluoro-4-pyrrolidinylphenyl)-2-oxo-5-oxazolidinyl]methyl]-4-oxo-4-(2-thienyl)butanamide] | 2 to 8 µg/mL
19 | O=C(CCC(=O)c1ccc2ccccc2c1)NC[C@H]1CN(c2ccc([N+]3([O-])CCOCC3)c(F)c2)C(=O)O1 [Compound 30, (S)-N-[[3-(3-fluoro-4-morpholinylphenyl)-2-oxo-5-oxazolidinyl]methyl]-4-(4-2-naphthyl)-4-oxobutanamide-N-oxide] | 0.5 to 2 µg/mL
20 | O=C(CCC(=O)c1cccs1)NC[C@H]1CN(c2ccc([N+]3([O-])CCOCC3)c(F)c2)C(=O)O1 [Compound 31, (S)-N-[[3-(3-fluoro-4-morpholinylphenyl)-2-oxo-5-oxazolidinyl]methyl]-4-oxo-4-(2-thienyl)butanamide-N-oxide] | 1 to 4 µg/mL
21 | CC(C)Cc1ccc(C(=O)CCC(=O)NC[C@H]2CN(c3ccc([N+]4([O-])CCOCC4)c(F)c3)C(=O)O2)cc1 [Compound 33] | 0.5 to 2 µg/mL
22 | O=C(C=CC(=O)c1ccccc1)NC[C@H]1CN(c2ccc(N3CCOCC3)c(F)c2)C(=O)O1 [Compound 34, (S)-N-[[3-(3-fluoro-4-morpholinylphenyl)-2-oxo-5-oxazolidinyl]methyl]-4-oxo-4-phenylbut-2-enamide] | >16 µg/mL
23 | COc1ccc(C(=O)CCC(=O)NC[C@H]2CN(c3ccc(N4CCCCC4)c(F)c3)C(=O)O2)cc1 [Compound 35, (S)-N-[[3-(3-fluoro-4-piperidylphenyl)-2-oxo-5-oxazolidinyl]methyl]-4-(4-methoxyphenyl)-4-oxobutanamide] | 4 to 8 µg/mL
24 | O=C(CCC(=O)c1ccc(Cl)cc1)NC[C@H]1CN(c2ccc(N3CCCCC3)c(F)c2)C(=O)O1 [Compound 36, (S)-N-[[3-(3-fluoro-4-piperidylphenyl)-2-oxo-5-oxazolidinyl]methyl]-4-(4-chlorophenyl)-4-oxobutanamide] | 4 to 8 µg/mL
25 | O=C(CCC(=O)c1ccc(Cl)cc1)NC[C@H]1CN(c2ccc(-n3nnc4ccccc43)c(F)c2)C(=O)O1 [Compound 39, (S)-N-[[3-(3-fluoro-4-benzotriazolylphenyl)-2-oxo-5-oxazolidinyl]methyl]-4-(4-chlorophenyl)-4-oxobutanamide] | 2 to 8 µg/mL
26 | CSc1ccc(C(=O)CCC(=O)NC[C@H]2CN(c3ccc(-n4cncn4)c(F)c3)C(=O)O2)cc1 [Compound 44, (S)-N-[[3-(3-fluoro-4-(1,2,4-triazolyl)phenyl)-2-oxo-5-oxazolidinyl]methyl]-4-oxo-4-(4-thiomethylphenyl)butanamide] | 1 to 4 µg/mL
27 | CC(=O)Nc1ccc(C(=O)CCC(=O)NC[C@H]2CN(c3ccc(N4CCCCC4)c(F)c3)C(=O)O2)cc1 [Compound 54, (S)-N-[[3-(3-fluoro-4-piperidylphenyl)-2-oxo-5-oxazolidinyl]methyl]-4-(4-acetamidophenyl)-4-oxobutanamide] | >16 µg/mL
28 | O=C(C=CC(=O)c1ccccc1)NC[C@H]1CN(c2ccc(N3CCCCC3)c(F)c2)C(=O)O1 [Compound 55, (S)-N-[[3-(3-fluoro-4-piperidylphenyl)-2-oxo-5-oxazolidinyl]methyl]-4-oxo-4-phenylbut-2-enamide] | >16 µg/mL
29 | CSc1ccc(C(=O)CCC(=O)NC[C@H]2CN(c3ccc(N4CCCC4)c(F)c3)C(=O)O2)cc1 [Compound 56, (S)-N-[[3-(3-fluoro-4-pyrrolidinylphenyl)-2-oxo-5-oxazolidinyl]methyl]-4-oxo-4-(4-thiomethylphenyl)butanamide] | >16 µg/mL
30 | O=C(CCC(=O)c1ccc2ccccc2c1)NC[C@H]1CN(c2ccc(N3CCCC3)c(F)c2)C(=O)O1 [Compound 57, (S)-N-[[3-(3-fluoro-4-pyrrolidinylphenyl)-2-oxo-5-oxazolidinyl]methyl]-4-(2-naphthyl)-4-oxobutanamide] | >16 µg/mL
31 | (S)-N-[[3-(3-fluoro-4-(1,2,4-triazolyl)phenyl)-2-oxo-5-oxazolidinyl]methyl]-4-(2′,2′-dimethyl-4-ethylphenyl)-4-oxobutanamide [Compound 45] | 2 to 4 µg/mL
32 | (S)-N-[[3-(3-fluoro-4-(1,2,4-triazolyl)phenyl)-2-oxo-5-oxazolidinyl]methyl]-4-oxo-4-phenylbutanamide [Compound 40] | 1 to 2 µg/mL
33 | (S)-N-[[3-(3-fluoro-4-morpholinylphenyl)-2-oxo-5-oxazolidinyl]methyl]-4-[4-(2′,2′-dimethyl-4-ethylphenyl)-4-oxobutanamide [Compound 20] | 2 to 4 µg/mL

same assay, conditions: Table II

Row | Compound | MIC M. tuberculosis Resistant
34 | O=C(CCC(=O)c1ccc2ccccc2c1)NC[C@H]1CN(c2ccc([N+]3([O-])CCOCC3)c(F)c2)C(=O)O1 [Compound 30, (S)-N-[[3-(3-fluoro-4-morpholinylphenyl)-2-oxo-5-oxazolidinyl]methyl]-4-(4-2-naphthyl)-4-oxobutanamide-N-oxide] | 0.50 to 2.0 µg/mL
